Laboratory results reported in ChEMBL document CHEMBL3886330, “Substituted azoanthracene derivatives and intermediates for preparation thereof” (2015).

target: Glucagon-like peptide 1 receptor (Homo sapiens, UniProt P43220); type: functional
Sequence (P43220 whole entry): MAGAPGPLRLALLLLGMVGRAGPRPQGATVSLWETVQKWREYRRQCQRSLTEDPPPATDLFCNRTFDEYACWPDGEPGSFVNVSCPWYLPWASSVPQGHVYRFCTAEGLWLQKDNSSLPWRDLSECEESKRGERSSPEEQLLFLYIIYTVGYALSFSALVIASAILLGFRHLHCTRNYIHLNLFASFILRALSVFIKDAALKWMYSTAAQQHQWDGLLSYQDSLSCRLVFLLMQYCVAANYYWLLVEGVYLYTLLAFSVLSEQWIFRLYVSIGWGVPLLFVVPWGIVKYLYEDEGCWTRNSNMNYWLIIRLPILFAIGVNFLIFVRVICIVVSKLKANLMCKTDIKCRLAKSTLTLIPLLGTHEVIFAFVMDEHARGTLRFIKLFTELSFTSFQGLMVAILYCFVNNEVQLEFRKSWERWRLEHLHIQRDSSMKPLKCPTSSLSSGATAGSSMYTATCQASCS

| SMILES | EC50 [nM] |
| --- | --- |
| CCCNc1nc(C)c(S(=O)(=O)N2Cc3cc4c(cc3C[C@H]2C(=O)N[C@@H](Cc2ccc(-c3ccc(C#N)cc3)cc2)C(=O)O)OCC(c2ccc(OCc3ccc(Cl)c(Cl)c3)cc2)O4)s1 (stereo partly specified) | 67 |
| CCCCOC(=O)N1Cc2cc3c(cc2C[C@H]1C(=O)N[C@@H](Cc1ccc(-c2ccnc(C)c2C)cc1)C(=O)O)OC[C@H](c1ccc(OCc2ccc(Cl)c(Cl)c2)cc1)O3 | 64 |
| Cc1nccc(Oc2ccc(C[C@H](NC(=O)[C@@H]3Cc4cc5c(cc4CN3C(=O)OCC(C)C)O[C@@H](c3ccc(OCc4ccc(Cl)c(Cl)c4)cc3)CO5)C(=O)O)cc2)c1C | 311 |
| Cc1nccc(-c2ccc(C[C@H](NC(=O)[C@@H]3Cc4cc5c(cc4CN3C(=O)N(C(C)C)C(C)C)O[C@@H](c3ccc(OCc4ccc(Cl)c(Cl)c4)cc3)CO5)C(=O)O)cc2)c1C | 73 |
| CCNc1nc(C)c(S(=O)(=O)N2Cc3cc4c(cc3C[C@H]2C(=O)N[C@@H](Cc2ccc(-c3ccc(Cl)cc3)cc2)C(=O)O)OCC(c2ccc(OCc3ccc(Cl)c(Cl)c3)cc2)O4)s1 (stereo partly specified) | 264 |
| Cc1nccc(-c2ccc(C[C@H](NC(=O)[C@@H]3Cc4cc5c(cc4CN3S(C)(=O)=O)O[C@@H](c3ccc(OCc4ccc(Cl)c(Cl)c4)cc3)CO5)C(=O)O)cc2)c1C | 267 |
| Cc1nc(C(=O)N2Cc3cc4c(cc3C[C@H]2C(=O)N[C@@H](Cc2ccc(Oc3ccnc(C)c3C)cc2)C(=O)O)OC[C@H](c2ccc(OCc3ccc(Cl)c(Cl)c3)cc2)O4)co1 | 177 |
| Cc1nccc(-c2ccc(C[C@H](NC(=O)[C@@H]3Cc4cc5c(cc4CN3C(=O)OCc3ccccc3)O[C@@H](c3ccc(OCc4ccc(Cl)c(Cl)c4)cc3)CO5)C(=O)O)cc2)c1C | 23 |
| Cc1nccc(-c2ccc(C[C@H](NC(=O)[C@@H]3Cc4cc5c(cc4CN3C(=O)OCC(C)(C)C)O[C@@H](c3ccc(OCc4ccc(Cl)c(Cl)c4)cc3)CO5)C(=O)O)cc2)c1C | 87 |
| Cc1nc(C(=O)N2Cc3cc4c(cc3C[C@H]2C(=O)N[C@@H](Cc2ccc(-c3ccnc(C)c3C)cc2)C(=O)O)OC[C@H](c2ccc(OCc3ccc(Cl)c(Cl)c3)cc2)O4)c(C(F)(F)F)o1 | 42 |
| CC[C@@H](c1ccccc1)N1Cc2cc3c(cc2C[C@H]1C(=O)N[C@@H](Cc1ccc(-c2ccc(C#N)nc2)cc1)C(=O)O)OC[C@H](c1ccc(OCc2ccc(Cl)c(Cl)c2)cc1)O3 | 154 |
| Cc1nc(NCC2CC2)sc1S(=O)(=O)N1Cc2cc3c(cc2C[C@H]1C(=O)N[C@@H](Cc1ccc(-c2ccc(C#N)cc2)cc1)C(=O)O)OCC(c1ccc(OCc2ccc(Cl)c(Cl)c2)cc1)O3 (stereo partly specified) | 75 |
| Cc1nccc(-c2ccc(C[C@H](NC(=O)[C@@H]3Cc4cc5c(cc4CN3C(=O)Nc3ccc(Cl)cc3)O[C@@H](c3ccc(OCc4ccc(Cl)c(Cl)c4)cc3)CO5)C(=O)O)cc2)c1C | 96 |
| Cc1nc(C(=O)N2Cc3cc4c(cc3C[C@H]2C(=O)N[C@@H](Cc2ccc(-c3ccc(C#N)cc3)cc2)C(=O)O)OC[C@H](c2ccc(OCc3ccc(Cl)c(Cl)c3)cc2)O4)c(C)o1 | 156 |
| CCc1cc(-c2ccc(C[C@H](NC(=O)[C@@H]3Cc4cc5c(cc4CN3[C@@H](CC)c3ccccc3)O[C@@H](c3ccc(OCc4ccc(Cl)c(Cl)c4)cc3)CO5)C(=O)O)cc2)ccn1 | 13 |
| CCNc1nc(C)c(S(=O)(=O)N2Cc3cc4c(cc3C[C@H]2C(=O)N[C@@H](Cc2ccc(-c3ccc(F)cc3)cc2)C(=O)O)OCC(c2ccc(OCc3ccc(Cl)c(Cl)c3)cc2)O4)s1 (stereo partly specified) | 131 |

| SMILES | EC50 [nM] |
| --- | --- |
| Cc1nccc(-c2ccc(C[C@H](NC(=O)[C@@H]3Cc4cc5c(cc4CN3C(=O)c3oc4ccccc4c3C)O[C@@H](c3ccc(OCc4ccc(Cl)c(Cl)c4)cc3)CO5)C(=O)O)cc2)c1C | 172 |
| Cc1nc(NC2CCCC2)sc1S(=O)(=O)N1Cc2cc3c(cc2C[C@H]1C(=O)N[C@@H](Cc1ccc(-c2ccc(C#N)cc2)cc1)C(=O)O)OCC(c1ccc(OCc2ccc(Cl)c(Cl)c2)cc1)O3 (stereo partly specified) | 70 |
| Cc1nccc(-c2ccc(C[C@H](NC(=O)[C@@H]3Cc4cc5c(cc4CN3C(=O)c3cnccn3)O[C@@H](c3ccc(OCc4ccc(Cl)c(Cl)c4)cc3)CO5)C(=O)O)cc2)c1C | 166 |
| CC[C@@H](c1ccccc1)N1Cc2cc3c(cc2C[C@H]1C(=O)N[C@@H](Cc1ccc(-c2ccnc(C)c2)cc1)C(=O)O)OC[C@H](c1ccc(OCc2ccc(Cl)c(Cl)c2)cc1)O3 | 20 |
| Cc1ccc(COc2ccc(C3COc4cc5c(cc4O3)CN(S(=O)(=O)c3sc(N)nc3C)[C@H](C(=O)N[C@@H](Cc3ccc(-c4ccc(C#N)cc4)cc3)C(=O)O)C5)cc2)cc1Cl (stereo partly specified) | 434 |
| Cc1nccc(-c2ccc(C[C@H](NC(=O)[C@@H]3Cc4cc5c(cc4CN3C(=O)c3cccc(Cl)c3)O[C@@H](c3ccc(OCc4ccc(Cl)c(Cl)c4)cc3)CO5)C(=O)O)cc2)c1C | 22 |
| N#Cc1ccc(-c2ccc(C[C@H](NC(=O)[C@@H]3Cc4cc5c(cc4CN3C(=O)c3ccccc3)OC(c3ccc(OCc4ccc(Cl)c(Cl)c4)cc3)CN5)C(=O)O)cc2)cc1 (stereo partly specified) | 410 |
| CC(=O)Nc1nc(C)c(S(=O)(=O)N2Cc3cc4c(cc3C[C@H]2C(=O)N[C@@H](Cc2ccc(-c3ccnc(C)c3C)cc2)C(=O)O)OC[C@H](c2ccc(OCc3ccc(Cl)c(Cl)c3)cc2)O4)s1 | 24 |
| CC[C@@H](c1ccccc1)N1Cc2cc3c(cc2C[C@H]1C(=O)N[C@@H](Cc1ccc(-c2ccnc(F)c2)cc1)C(=O)O)OC[C@H](c1ccc(OCc2ccc(Cl)c(Cl)c2)cc1)O3 | 222 |
| CCCc1cc(-c2ccc(C[C@H](NC(=O)[C@@H]3Cc4cc5c(cc4CN3[C@@H](CC)c3ccccc3)O[C@@H](c3ccc(OCc4ccc(Cl)c(Cl)c4)cc3)CO5)C(=O)O)cc2)ccn1 | 83 |
| N#Cc1ccc(-c2ccc(C[C@H](NC(=O)[C@@H]3Cc4cc5c(cc4CN3Cc3ccccc3C#N)OC(c3ccc(OCc4ccc(Cl)c(Cl)c4)cc3)CO5)C(=O)O)cc2)cc1 (stereo partly specified) | 657 |
| Cc1nccc(-c2ccc(C[C@H](NC(=O)[C@@H]3Cc4cc5c(cc4CN3C(=O)N[C@H](C)c3ccccc3)O[C@@H](c3ccc(OCc4ccc(Cl)cc4Cl)cc3)CO5)C(=O)O)cc2)c1C | 133 |
| Cc1nccc(Oc2ccc(C[C@H](NC(=O)[C@@H]3Cc4cc5c(cc4CN3C(=O)N[C@H](C)c3ccccc3)O[C@@H](c3ccc(OCc4ccc(Cl)c(Cl)c4)cc3)CO5)C(=O)O)cc2)c1C | 115 |
| CC[C@@H](NC(=O)N1Cc2cc3c(cc2C[C@H]1C(=O)N[C@@H](Cc1ccc(-c2ccnc(C)c2C)cc1)C(=O)O)OC[C@H](c1ccc(OCc2ccc(Cl)c(Cl)c2)cc1)O3)c1ccccc1 | 126 |
| C[C@@H](NC(=O)N1Cc2cc3c(cc2C[C@H]1C(=O)N[C@@H](Cc1ccc(-c2ccc(C#N)cc2)cc1)C(=O)O)OC[C@H](c1ccc(OCc2ccc(Cl)c(Cl)c2)cc1)O3)c1ccccc1 | 288 |
